Results published in patent US20070178045A1, “Cyclopeptide derivatives with anti-integrin activity” (priority 2004, published 2007).
Several values for one entry are separate records, joined by “and”; a condition that tells them apart may be missing. Equal values may be shown once.

Experiments:
[1] = biological target: T1, purified αvβ3 receptor (Homo sapiens, UniProt P05106+P06756); experiment: Binding to integrin αvβ3 receptors ([125I]echistatin competition); details: inhibition of [125I]echistatin 0.05 nM binding to purified αvβ3 receptor; read-out: αvβ3 IC50 ± SD
T1 construct: purchased Chemicon CC1020
Protocol: Binding to Integrin αvβ3 Receptors
(§1) An aliquot of 100 μl was added to 96-well plates and incubated overnight at +4° C. Plates were washed once with buffer (50 mM Tris, pH 7.4, 100 mM NaCl, 2 mM CaCl2, 1 mM MgCl2, 1 mM MnCl2, 1% bovine serum albumin) and then incubated for another 2 hours at room temperature. Plates were washed twice with the same buffer and incubated for 3 hours at room temperature with the radioactive ligand [^125I]echistatin (Amersham Pharmacia Biotech) 0.05 nM in the presence of competition ligands. At the end of incubation, the wells were washed and the radioactivity determined using a gamma counter (Packard). Non-specific binding of the ligand was determined in the presence of excess cold echistatin (1 μM).
(§2) Evaluation of IC50 Parameters
(§3) The IC50 parameter was elaborated using “ALLFIT” software.

[2] = biological target: T2, purified αvβ5 receptor (Homo sapiens, UniProt P06756+P18084); experiment: Binding to integrin αvβ5 receptors ([125I]echistatin competition); details: inhibition of [125I]echistatin 0.15 nM binding to purified αvβ5 receptor; read-out: αvβ5 IC50 ± SD
T2 construct: purchased Chemicon CC1020
Protocol: Binding to Integrin αvβ5 Receptors
as §1, with “0.15” for “0.05”, “Non-specific ligand” for “Non-specific”, “binding” for “binding of the ligand”
as §2, §3

[3] = test system: PC3 prostate carcinoma cells; assay type: cell-based, human; details: read-out: PC3 IC50, μM 3 h of treatm., cell adhesion to vitronectin, PC3 low levels of both integrins
Protocol: (§4) Adhesion Assay of Tumor Cells on Vitronectin
(§5) A2780 human ovarian carcinoma and PC3 prostate carcinoma cells were grown in RPMI 1640 containing 10% fetal bovine serum and 50 μg/ml gentamycin sulfate. A498 human renal carcinoma were grown in EMEM containing 10% fetal bovine serum and 50 μg/ml gentamycin sulfate. All the cells were maintained in a 37° C. incubator with saturated humidity and an atmosphere of 95% air and 5% CO2.
(§6) A2780 cell line expresses high levels of αvβ5 integrins, A498 high levels of αvβ3 integrins, and PC3 low levels of both integrins.
To test the effect of the drugs on cell adhesion, the appropriate cellular density (40000-50000 cells/well) for each tumor cell line was incubated with different concentrations of the compounds in 96-well tissue culture plates coated with vitronectin (5 μg/ml) and was allowed to attach for 3 hours. After this time the cells were washed once with PBS containing Ca^2+ e Mg^2+. Tumor cells were fixed with 4% paraformaldehyde for 10 min at room temperature and stained with 1% toluidine blue for 10 min at room temperature. […] The number of adherent cells was determined in a microplate reader (Victor2, EG&G Wallac) at 600 nm.
(§7) An IC50 value as parameter to measure the inhibiting effect of the molecules on tumor cell adhesion to vitronectin was evaluated using “ALLFIT” computer program.

[4] = test system: A2780 human ovarian carcinoma; assay type: cell-based; details: read-out: A2780 IC50, μM 3 h of treatm., cell adhesion to vitronectin, A2780 high levels of αvβ5 integrins
Protocol: as §4, §5, §6
(§8) To test the effect of the drugs on cell adhesion, the appropriate cellular density (40000-50000 cells/well) for each tumor cell line was incubated with different concentrations of the compounds in 96-well tissue culture plates coated with vitronectin (5 μg/ml) and was allowed to attach for 3 hours. After this time the cells were washed once with PBS containing Ca^2+ e Mg^2+. Tumor cells were fixed with 4% paraformaldehyde for 10 min at room temperature and stained with 1% toluidine blue for 10 min at room temperature. Tumor cells were washed with bi-distilled water, dried and solubilized with 1% SDS. The number of adherent cells was determined in a microplate reader (Victor2, EG&G Wallac) at 600 nm.
as §7

[5] = test system: A498 human renal carcinoma; assay type: cell-based; details: read-out: A498 IC50, μM 3 h of treatm., cell adhesion to vitronectin, A498 high levels of αvβ3 integrins
Protocol: as §4, §5, §6, §8, §7

SMILES | IC50 [1] | IC50 [2] [nM] | IC50 [3] [µM] | IC50 [4] [µM] | IC50 [5] [µM]
CN1C(=O)[C@@H](Cc2ccccc2)NC(=O)[C@H](CC(=O)O)NC(=O)CNC(=O)[C@H](CCCNC(=N)N)NC(=O)[C@@H]1Cc1ccc(CN)cc1 [ST2700, c(Arg-Gly-Asp-D-Phe-N-Me-Amp)] | 7 nM and 7.2 nM | 0.99 |  |  | 
N=C(N)NCCC[C@@H]1NC(=O)[C@H](Cc2ccc(CNC(=O)CCC(=O)O)cc2)NC(=O)[C@@H](Cc2ccccc2)NC(=O)[C@H](CC(=O)O)NC(=O)CNC1=O [ST2649, c[Arg-Gly-Asp-D-Phe-Amp-(CH2)2COOH]] | 37.6 ± 0.9 nM | 5.1 ± 0.07 | 33.7 ± 7.8 | 9.5 ± 1.9 | 34 ± 2.2
N=C(N)NCCC[C@@H]1NC(=O)[C@H](Cc2ccc(CNC(=O)COCCOCCOCC(=O)O)cc2)NC(=O)[C@@H](Cc2ccccc2)NC(=O)[C@H](CC(=O)O)NC(=O)CNC1=O [ST2661, c[Arg-Gly-Asp-D-Phe-Amp-(CO—CH2—(O—CH2—CH2)2—O—CH2—COOH]] |  |  | 18.8 ± 4.4 | 12.3 ± 0.9 | 10.7 ± 0.4
COCCOCCOCCOCC(=O)NCc1ccc(C[C@@H]2NC(=O)[C@@H](Cc3ccccc3)NC(=O)[C@H](CC(=O)O)NC(=O)CNC(=O)[C@H](CCCNC(=N)N)NC2=O)cc1 [ST2597, c[Arg-Gly-Asp-D-Phe-Amp(CO—CH2—(OCH2CH2)3—OCH3)]] | 13.5 ± 0.8 nM | 2.1 ± 0.07 |  |  | 
N=C(N)NCCC[C@@H]1NC(=O)[C@H](Cc2ccc(CN)cc2)NC(=O)[C@@H](Cc2ccccc2)NC(=O)[C@H](CC(=O)O)NC(=O)CNC1=O [ST2581, c(Arg-Gly-Asp-D-Phe-Amp)] | 1.7 nM | 3.4 ± 0.1 |  |  | 

Further lines, with some results ahead:

IC50 [1] | IC50 [2] [nM] | SMILES | IC50 [3] [µM] | IC50 [4] [µM] | IC50 [5] [µM]
30 ± 0.9 nM | 34 ± 1.4 | CC(C)[C@H]1C(=O)N[C@@H](CCCNC(=N)N)C(=O)NCC(=O)N[C@@H](CC(=O)O)C(=O)N[C@H](Cc2ccccc2)C(=O)N1CCCCCC(=O)O [ST2956, c[Arg-Gly-Asp-D-Phe-N(carboxypentilene)-Val)]] |  |  | 
42.2 ± 0.7 nM | 38.3 ± 1.3 | C=CCOC(=O)CCCCCN1C(=O)[C@@H](Cc2ccccc2)NC(=O)[C@H](CC(=O)O)NC(=O)CNC(=O)[C@H](CCCNC(=N)N)NC(=O)[C@@H]1C(C)C [ST2957, c[Arg-Gly-Asp-D-Phe-N(allyloxycarbonylpentilene)-Val]] |  |  | 
36.7 ± 0.7 nM | 2.9 ± 0.1 | N=C(N)NCCC[C@@H]1NC(=O)CN(Cc2ccc(CN)cc2)C(=O)[C@@H](Cc2ccccc2)NC(=O)[C@H](CC(=O)O)NC(=O)CNC1=O [ST2701, c(Arg-Gly-Asp-D-Phe-N-Amb-Gly)] |  |  | 
